From US6399655B1, “Method for the prophylactic treatment of cataracts” (Johns Hopkins University, School of Medicine, priority 1998, dated 2002)

What was measured:
[1] = Weight of the ovaries and the uterus after oral genistein; assay type: in vivo; details: oral administration, female rats
Text: (§1) An advantage of genistein is that it is very safe and efficacious. […] Also, no effect of orally administered genistein was found with respect to the weight of the ovaries and the uterus in female rats.

[2] = Food intake and body weight after oral genistein; assay type: in vivo; details: oral administration, male and female rats
Text: as §1

[3] = tested on: Zucker diabetic fatty (ZDF, fa/fa) rats; experiment: Cataract formation in Zucker diabetic fatty rats fed genistein in chow for six months; assay type: in vivo, rat
Protocol: (§2) Thirty pair of litter mates of Zucker rats, i.e., thirty male retired breeder Zucker diabetic fatty (ZDF, fa/fa) rats and thirty male retired breeder lean Zucker (fa/+) rats, were obtained (Genetic Models, Inc., Indianapolis, Ind.). The animals were treated in accordance with The Association for Research in Vision and Ophthalmology (ARVO) Statement for the Use of Animals in Ophthalmic and Vision Research. The average blood glucose value was more than 500 mg/dl for the Zucker diabetic fatty rats and 120 mg/dl for the control lean rats as measured by glucose oxidase assay at the time of death (Danis et al. (1993), supra).
(§3) Zucker diabetic fatty rats were divided into four groups and fed Purina 5008 rat chow containing varying concentrations of genistein: 0 mg/kg chow, 75 mg/kg chow, 150 mg/kg chow and 300 mg/kg chow. Cataract formation was assessed after six months of treatment. The extent of cataract formation was determined after dilating pupils with phenylephrine (2.5%) and Tropicamide (1%) in rats under general anesthesia resulting from intraperitoneal injections of ketamine (40 mg/kg) and xylazine (4 mg/kg). Disease progression was categorized as total cataract, partial cataract (mainly minimal posterior subcapsular cataract), or no cataract.

retina = experiment: Retinal toxicity by electroretinography after oral genistein; assay type: in vivo; details: 75 mg/kg/day to 300 mg/kg/day, six months, Zucker diabetic fatty rats
Text: as §1

lean Zucker (fa/+) rats = experiment: Cataract formation in lean Zucker control rats fed genistein in chow; assay type: in vivo, rat; details: lean Zucker rats, 0, 75, 150 or 300 mg Genistein/kg chow, six months
Protocol: as §2, §3
Zucker lean rats were also divided into 4 groups and fed Purina 5008 chow containing 0, 75, 150 or 300 mg Genistein/ kg chow. […]

O=c1c(-c2ccc(O)cc2)coc2cc(O)cc(O)c12 [genistein, 5,7-dihydroxy-3-(4-hydroxyphenyl)-4H-1-benzopyran-4-one]
Effect on weight of the ovaries and the uterus [1]: no effect
Effect on body weight [2]: no effect
Effect on food intake [2]: no effect
Partial Cataract (number of rats) ([3]; 75 mg/kg chow, n = 7): 3
Total Cataract (number of rats) ([3]; 75 mg/kg chow, n = 7): 4
No Cataract (number of rats) ([3]; 150 mg/kg chow, n = 8): 2
Partial Cataract (number of rats) ([3]; 150 mg/kg chow, n = 8): 2
Total Cataract (number of rats) ([3]; 150 mg/kg chow, n = 8): 4
Partial Cataract (number of rats) ([3]; 300 mg/kg chow, n = 8): 3
Total Cataract (number of rats) ([3]; 300 mg/kg chow, n = 8): 5
Inhibition of cataract formation ([3]; 75-300 mg/kg chow): significantly inhibits cataract formation
Toxicity to the retina as measured by electroretinography (retina): nontoxic to the retina
Cataracts in lean control rats (lean Zucker (fa/+) rats): not present
